pIC50: −log10 of the molar value. Blank lines part the entries; values can stand above or below the compound they belong to.
Molecular target: T1, Human ATX protein (Homo sapiens, UniProt Q13822)
T1 construct: made in house
Test: ATX biochemical FRET assay with FS-3 substrate
Conditions: FS-3 2 μM, ATX 1.0 μg/mL, room temperature 2 hours, fluorescence 485/538 nm
Text: ATX (Autotaxin) is a 125 KDa glycoprotein with lysophospholipase D (LPLD) activity that generates the bioactive lipid lysophosphatidic acid (LPA) from lysophosphatidylcholine (LPC). The ATX biochemical assay utilizes a FRET (fluorescence resonance energy transfer) technology platform. The fluorescence signal of FRET substrate FS-3 is quenched due to intra-molecular FRET of a fluorophore to a non-fluorescing quencher (Ferguson, C. G., et al., Org Lett. 2006 May 11; 8(10): 2023-2026, which is incorporated by reference in its entirety). ATX catalyzes the hydrolysis of the substrate which separates the dabsyl quencher from the fluorescein reporter, which becomes fluorescent. The reaction is monitored by a SpectraMax M5 (Molecular Devices, Sunnyvale, Calif.) with at excitation wavelength 485 nm and emission wavelength […].
Fatty acid free-BSA (Sigma A8806): 10 mg/ml, in H2O, stored at 4° C.
2×ATX assay buffer: 100 mM Tris, 280 mM NaCl, 10 mM KCl, 2 mM CaCl2, 2 mM MgCl2, pH 7.4.
Human ATX protein: expressed and purified in house. Stored at −80° C.
Substrate FS-3 (Echelon, L-2000): 100 μg in 77.74 μL H2O (1 mM stock), stored at −20° C.
384-well flat bottom plates—Corning #3575.
Compound dilution—All compounds were provided at 10 mM in 100% DMSO. In the first well, 2 μL of 10 mM compound was added to 78 μL of DMSO (1:40 dilution). In subsequent wells 3-fold dilution (total 10 dilutions) were performed.
1×ATX assay buffer was made up with a final concentration of 1 mg/mL fatty acid free-BSA using 2×ATX assay buffer, 10 mg/ml fatty acid free-BSA and ddH2O.
ATX protein was diluted with 1×ATX assay buffer to a concentration of 1.32 μg/mL (1.32×). 38 μL was added per well to the assay plate. The final concentration of ATX in the reaction as 1.0 μg/mL.
2 μL per well of compounds was transferred to provide the desired concentration. The plate was centrifuged, then incubated at room temperature for 30 minutes on the shaker.
FS-3 was diluted with 1×ATX assay buffer to a concentration of FS-3 of 10 μM (5×). Then, 10 μL was added per well to the assay plate. The final concentration of FS-3 in the reaction was 2 μM. The plate was centrifuged. The plate was kept shaking at room temperature for 2 hours. Because FS-3 substrate is light sensitive, plates were kept covered and protected from light.
Fluorescence was measured using SpectraMax M5 (excitation at 485 nm/emission at 538 nm, top read).

SMILES: CC(c1ccc2c(C(F)F)c(O[C@H]3CC[C@@H](C)CC3)ccc2c1)N1C2CCCC1CC(C(=O)O)C2 (single isomer, unassigned; enantiomer 1) [Example 138, 9-(1-(5-(difluoromethyl)-6-((cis-4-methylcyclohexyl)oxy)naphthalen-2-yl)ethyl)-9-azabicyclo[3.3.1]nonane-3-carboxylic acid, enantiomer 1]
pIC50: ≥ 7.00

SMILES: CCC(c1ccc2c(C(F)F)c(O[C@H]3CC[C@@H](C)CC3)ccc2c1)N1C2CCC1CC(C(=O)O)C2 (single isomer, unassigned; enantiomer 1) [Example 140, 8-(1-(5-(difluoromethyl)-6-((cis-4-methylcyclohexyl)oxy)naphthalen-2-yl)propyl)-8-azabicyclo[3.2.1]octane-3-carboxylic acid, enantiomer 1]
pIC50: ≥ 7.00

pIC50: ≥ 6.60
SMILES: O=C(O)C1CC2CCC(C1)C2NCc1ccc2c(C(F)(F)F)c(O[C@H]3CC[C@@H](C(F)(F)F)CC3)ccc2c1 (single isomer, unassigned; enantiomer 1) [Example 162, N-(5-trifluoromethyl-6-(cis-4-trifluoromethyl-cyclohexyloxy)-naphthalen-2-ylmethyl)-8-aminobicyclo[3.2.1]octane-3-carboxylic acid, enantiomer 1]

SMILES: CC(c1ccc2c(C(F)(F)F)c(O[C@H]3CC[C@@H](C(F)(F)F)CC3)ccc2c1)N1C2CCC1CC(C(=O)O)C2 (single isomer, unassigned; enantiomer 1) [Example 173, 8-(1-(5-(trifluoromethyl)-6-((cis-4-(trifluoromethyl)cyclohexyl)oxy)naphthalen-2-yl)ethyl)-8-azabicyclo[3.2.1]octane-3-carboxylic acid, enantiomer 1]
pIC50: ≥ 7.00

SMILES: CC(c1ccc2c(C(F)(F)F)c(O[C@H]3CC[C@@H](C)CC3)ccc2c1)N1C2CCC1CC(C(=O)O)C2 (single isomer, unassigned; enantiomer 2) [Example 131, 8-(1-(6-((cis-4-Methylcyclohexyl)oxy)-5-(trifluoromethyl)naphthalen-2-yl)ethyl)-8-azabicyclo[3.2.1]octane-3-carboxylic acid, enantiomer 2]
pIC50: ≥ 7.00

SMILES: CC[C@H]1CC[C@@H](Oc2ccc3cc(CN4C5CCCC4CC(C(=O)O)C5)ccc3c2)CC1 (stereo partly drawn) [Example 83, 9-((6-((cis-4-ethylcyclohexyl)oxy)naphthalen-2-yl)methyl)-9-azabicyclo[3.3.]nonane-3-carboxylic acid]
pIC50: ≥ 6.30

SMILES: O=C(O)C1CC2CCCC(C1)N2Cc1ccc2c(C(F)(F)F)c(O[C@H]3CC[C@@H](C(F)(F)F)CC3)ccc2c1 (stereo partly drawn) [Example 84, 9-((5-(trifluoromethyl)-6-((cis-4-(trifluoromethyl)cyclohexyl)oxy)naphthalen-2-yl)methyl)-9-azabicyclo[3.3.1]nonane-3-carboxylic acid]
pIC50: ≥ 7.00

pIC50: ≥ 6.30
SMILES: O=C(O)C1CC(NCc2ccc3c(C(F)(F)F)c(O[C@H]4CC[C@@H](C(F)(F)F)CC4)ccc3c2)C12CCCCC2 (stereo partly drawn) [Example 85, 3-(((5-(trifluoromethyl)-6-((cis-4-(trifluoromethyl)cyclohexyl)oxy)naphthalene-2-yl)methyl)amino)spiro[3.5]nonane-1-carboxylic acid]

SMILES: CC(c1ccc2c(C(F)(F)F)c(O[C@H]3CC[C@@H](C(F)(F)F)CC3)ccc2c1)N1C2CCCC1CC(C(=O)O)C2 (some centres unmarked) [Example 88]
pIC50: ≥ 7.00

SMILES: CC(c1ccc2c(C(F)(F)F)c(O[C@H]3CC[C@@H](C)CC3)ccc2c1)N1C2CCCC1CC(C(=O)O)C2 (stereo partly drawn) [Example 93, 9-(1-(6-((cis-4-Methylcyclohexyl)oxy)-5-(trifluoromethyl)naphthalen-2-yl)ethyl)-9-azabicyclo[3.3.1]nonane-3-carboxylic acid]
pIC50: ≥ 7.00

SMILES: C[C@H]1CC[C@@H](Oc2ccc3cc(CN4C5CCC4CC(C(=O)O)C5)ccc3c2C(F)(F)F)CC1 (stereo partly drawn) [Example 96, 8-((6-((cis-4-Methylcyclohexyl)oxy)-5-(trifluoromethyl)naphthalen-2-yl)methyl)-8-azabicyclo[3.2.1]octane-3-carboxylic acid]
pIC50: ≥ 6.30

SMILES: C[C@H]1CC[C@@H](Oc2ccc3cc(CN4C5CCCC4CC(C(=O)O)C5)ccc3c2C(F)(F)F)CC1 (stereo partly drawn) [Example 97, 9-((6-((cis-4-Methylcyclohexyl)oxy)-5-(trifluoromethyl)naphthalen-2-yl)methyl)-9-azabicyclo[3.3.1]nonane-3-carboxylic acid]
pIC50: ≥ 7.00

SMILES: CCC(c1ccc2c(C(F)F)c(O[C@H]3CC[C@@H](C)CC3)ccc2c1)N1C2CCC1CC(C(=O)O)C2 (stereo partly drawn) [Example 99, 8-(1-(5-(difluoromethyl)-6-((cis-4-methylcyclohexyl)oxy)naphthalen-2-yl)propyl)-8-azabicyclo[3.2.1]octane-3-carboxylic acid]
pIC50: ≥ 7.00

SMILES: O=C(O)C1CC2CCCC(C1)N2Cc1ccc2c(C(F)F)c(O[C@H]3CC[C@@H](C(F)(F)F)CC3)ccc2c1 (stereo partly drawn) [Example 100, 9-((5-(difluoromethyl)-6-((cis-4-(trifluoromethyl)cyclohexyl)oxy)naphthalene-2-yl)methyl)-9-azabicyclo[3.3.1]nonane-3-carboxylic acid]
pIC50: ≥ 7.00

SMILES: O=C(O)C1CC2CCCC(C1)N2Cc1ccc2c(C(F)(F)F)c(O[C@H]3CC[C@@H](C(F)(F)F)CC3)ccc2n1 (stereo partly drawn) [Example 101, 9-((5-(trifluoromethyl)-6-((cis-4-(trifluoromethyl)cyclohexyl)oxy)quinolin-2-yl)methyl)-9-azabicyclo[3.3.1]nonane-3-carboxylic acid]
pIC50: ≥ 7.00

SMILES: CC(c1ccc2c(C(F)(F)F)c(O[C@H]3CC[C@@H](C(F)(F)F)CC3)ccc2n1)N1C2CCC1CC(C(=O)O)C2 (stereo partly drawn) [Example 102, 8-(1-(5-(trifluoromethyl)-6-((cis-4-(trifluoromethyl)cyclohexyl)oxy)quinolin-2-yl)ethyl)-8-azabicyclo[3.2.1]octane-3-carboxylic acid]
pIC50: ≥ 7.00

SMILES: C[C@H]1CC[C@@H](Oc2ccc3cc(C(=O)N4C5CCC4CC(C(=O)O)C5)ccc3c2C(F)(F)F)CC1 (stereo partly drawn) [Example 104, 8-(6-((cis-4-Methylcyclohexyl)oxy)-5-(trifluoromethyl)-2-naphthoyl)-8-azabicyclo[3.2.1]octane-3-carboxylic acid]
pIC50: ≥ 7.00

SMILES: O=C(O)C1CC2CCCC(C1)N2C(=O)c1ccc2c(C(F)(F)F)c(O[C@H]3CC[C@@H](C(F)(F)F)CC3)ccc2c1 (stereo partly drawn) [Example 105, 9-(5-(trifluoromethyl)-6-((cis-4-(trifluoromethyl)cyclohexyl)oxy)-2-naphthoyl)-9-azabicyclo[3.3.1]nonane-3-carboxylic acid]
pIC50: ≥ 7.00

SMILES: O=C(O)C1CC2CCCC(C1)N2C(=O)Cc1ccc2c(C(F)(F)F)c(O[C@H]3CC[C@@H](C(F)(F)F)CC3)ccc2c1 (stereo partly drawn) [Example 106, 9-(2-(5-(trifluoromethyl)-6-((cis-4-(trifluoromethyl)cyclohexyl)oxy)naphthalene-2-yl)acetyl)-9-azabicyclo[3.3.1]nonane-3-carboxylic acid]
pIC50: ≥ 6.30

SMILES: C[C@H]1CC[C@@H](Oc2ccc3cc(C(C(=O)O)N4C5CCCC4CCC5)ccc3c2C(F)(F)F)CC1 (stereo partly drawn) [Example 109, 2-(9-Azabicyclo[3.3.1]nonan-9-yl)-2-(6-((cis-4-methylcyclohexyl)oxy)-5-(trifluoromethyl)naphthalen-2-yl)acetic acid]
pIC50: ≥ 6.60

SMILES: CC[C@H]1CC[C@@H](Oc2ccc3cc(CN4C5CCCC4CC(C(=O)O)C5)ccc3c2Cl)CC1 (stereo partly drawn) [Example 110, 9-((5-Chloro-6-((cis-4-ethylcyclohexyl)oxy)naphthalen-2-yl)methyl)-9-azabicyclo[3.3.1]nonane-3-carboxylic acid]
pIC50: ≥ 7.00

SMILES: O=C(O)C1CC2CCCC(C1)N2Cc1ccc2c(Cl)c(O[C@H]3CC[C@@H](C(F)(F)F)CC3)ccc2c1 (stereo partly drawn) [Example 111, 9-((5-Chloro-6-((cis-4-(trifluoromethyl)cyclohexyl)oxy)naphthalen-2-yl)methyl)-9-azabicyclo[3.3.1]nonane-3-carboxylic acid]
pIC50: ≥ 6.60

pIC50: ≥ 6.30
SMILES: O=C(O)C12CCC(NCc3ccc4c(C(F)(F)F)c(OC5CCC(C(F)(F)F)CC5)ccc4c3)(CC1)CC2 (centres unmarked) [Example 144, 3-(4-{[5-trifluoromethyl-6-(4-trifluoromethyl-cyclohexyloxy)-naphthalen-2-ylmethyl]-amino}-bicyclo[2.2.2]oct-1-yl)-carboxylic acid]
